Target: G protein-coupled receptor 35 (GPR35) (Homo sapiens, UniProt Q9HC97)
Experiment: GPR35 internalization by flow cytometry in NCM460 cells
Type: cell-based

Sequence of G protein-coupled receptor 35 (GPR35) (Q9HC97 whole entry): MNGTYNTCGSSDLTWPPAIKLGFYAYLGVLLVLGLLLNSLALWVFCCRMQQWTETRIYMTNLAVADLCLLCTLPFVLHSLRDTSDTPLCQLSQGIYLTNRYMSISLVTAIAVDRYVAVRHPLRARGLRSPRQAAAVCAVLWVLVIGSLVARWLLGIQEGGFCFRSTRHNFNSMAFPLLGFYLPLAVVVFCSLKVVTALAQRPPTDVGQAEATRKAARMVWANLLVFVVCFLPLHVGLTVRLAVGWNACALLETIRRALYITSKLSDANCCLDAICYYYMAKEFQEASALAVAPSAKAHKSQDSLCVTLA

EC50: 46.2 µM
Structure (SMILES): O=C(O)c1cc(=O)c2ccccc2[nH]1 [KA, kynurenic acid]

Reference: PMC7982426 (Acta Pharmaceutica Sinica. B, 2020)
